The text below walks through data of patent US20040234501A1, “Hepatitis b virus proliferation inhibitor” (priority 2001, published 2004).

The test system of one test is hepatitis B virus. Nature of the test: Amount of hepatitis B virus in the blood (HBV-DNA) and emergence of resistant virus in a patient with chronic hepatitis B. The format is in vivo, human. Particulars: after termination of IFN-α; 3,000,000 units for a total of 28 days. The protocol:
(§1) Confirmation of the effect of IFN administration to a patient with chronic hepatitis B:
(§2) Therefore, 3,000,000 units of IFN-α were administered for a total of 28 days.

The nature of test [1]: Liver function (GPT) in a patient with chronic hepatitis B. The class given is in vivo, human. On the procedure: as §1, §2

Consider interferon-α [IFN-α], for which the “amount of hepatitis B virus in the blood” value in the test on hepatitis B virus is recorded as “again increased”. Further, the liver function result in test [1] (3,000,000 units of IFN-α in combination with lamivudine, resistant virus present) is on record as “further worsened”; in test [1] (after termination of IFN-α, 3,000,000 units for a total of 28 days), “worsened”.

As to `Nc1ccn([C@@H]2CS[C@H](CO)O2)c(=O)n1` [lamivudine, reference compound], in test [1] (about 3 months after discontinuation of second lamivudine administration), the “GPT (liver function acutely worsened)” value is on record as 567.
